Laboratory results as given in patent publication US10703757B2, “Compounds and methods for CDK8 modulation and indications therefor” (Plexxikon Inc., priority 2016, dated 2020).

Legend:
[1] = test system: CDK8 (TCF/LEF luciferase reporter in HCT116 cells); experiment: Cell based TCF/LEF reporter assay (HCT116+TCF/LEF luciferase); details: Homo sapiens, HCT-116, 24 h
How it was run: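 HCT116 cells stably carrying a TCF/LEF-luciferase reporter (endogenous mutant β-catenin), seeded overnight, then exposed to serial compound dilutions for 24 h at 37 °C. Luminescence normalized to CellTiter-Fluor viability signal. % inhibition relative to DMSO and 10 uM CCT251545 controls, with IC50 from nonlinear regression.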

[2] = test system: CDK8 (phosphorylation of STAT1 at serine 727 in A549 cells); experiment: Cell based Phospho-STAT1 assay (IFNγ-stimulated A549 cells, AlphaLISA); details: Homo sapiens, A549, A549 cells, phospho-STAT1 after IFNγ stimulation
How it was run: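 A549 cells given serial compound dilutions for 1 h at 37 °C, then stimulated with IFNγ at 10 ng/mL final for 30 min. Lysate STAT1 Ser727 phosphorylation measured by AlphaLISA; % inhibition vs stimulated/unstimulated DMSO controls, IC50 by nonlinear regression.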

Row | Compound | IC50 [1] [nM] | IC50 [2] [nM]
1 | Cc1c(-c2ccc(-c3cnn4cccc(C#CC(C)(C)O)c34)cc2)cnn1C [Compound P-0230, 4-(3-(4-(1,5-dimethyl-1H-pyrazol-4-yl)phenyl)pyrazolo[1,5-a]pyridin-4-yl)-2-methylbut-3-yn-2-ol] | 0.1 to 100 | 0.1 to 100
2 | N#CC1CC=C(c2cccc3ncc(-c4ccc(-c5cnn(C(F)F)c5)cc4)n23)CC1 (centres unmarked) [Compound P-0438, 4-(3-(4-(1-(difluoromethyl)-1H-pyrazol-4-yl)phenyl)imidazo[1,2-a]pyridin-5-yl)cyclohex-3-ene-1-carbonitrile] | 0.1 to 100 | 0.1 to 100
3 | Cn1cc(-c2ccc(-c3cnc4[nH]ccc4c3N3CCC(C#N)CC3)cc2)cn1 [Compound P-0421, 1-(5-(4-(1-methyl-1H-pyrazol-4-yl)phenyl)-1H-pyrrolo[2,3-b]pyridin-4-yl)piperidine-4-carbonitrile] | 0.1 to 100 | 0.1 to 100
4 | COc1ccc2cc(-c3cnn4cccc(C5CCC(C#N)CC5)c34)ccc2n1 (centres unmarked) [Compound P-0195, 4-(3-(2-methoxyquinolin-6-yl)pyrazolo[1,5-a]pyridin-4-yl)cyclohexane-1-carbonitrile] | 0.1 to 100 | 0.1 to 100
5 | N#CC1CC=C(c2nccn3ncc(-c4ccc(-c5cnn(CCN6CCOCC6)c5)cc4)c23)CC1 (centres unmarked) [Compound P-0051, 4-(3-(4-(1-(2-morpholinoethyl)-1H-pyrazol-4-yl)phenyl)pyrazolo[1,5-a]pyrazin-4-yl)cyclohex-3-ene-1-carbonitrile] | 0.1 to 100 | 0.1 to 100
6 | N#CC1CCN(c2cccn3ncc(-c4ccc(OCc5ccccc5)cc4)c23)CC1 [Compound P-0267, 1-(3-(4-(benzyloxy)phenyl)pyrazolo[1,5-a]pyridin-4-yl)piperidine-4-carbonitrile] | 100 to 1000 | 100 to 1000
7 | N#CC1CCC(c2cccn3ncc(-c4ccc(OCC(O)CN5CCCCC5)cc4)c23)CC1 (centres unmarked) [Compound P-0143, 4-(3-(4-(2-hydroxy-3-(piperidin-1-yl)propoxy)phenyl)pyrazolo[1,5-a]pyridin-4-yl)cyclohexane-1-carbonitrile] | 0.1 to 100 | 0.1 to 100
8 | CC1(COc2ccc(-c3cnn4ccnc(C5=CCC(C#N)CC5)c34)cc2)COC1 (centres unmarked) [Compound P-0055, 4-(3-(4-((3-methyloxetan-3-yl)methoxy)phenyl)pyrazolo[1,5-a]pyrazin-4-yl)cyclohex-3-ene-1-carbonitrile] | 0.1 to 100 | 0.1 to 100
9 | N#CC1CCN(c2cccn3ncc(-c4ccc(C(=O)N5CCOCC5)cc4)c23)CC1 [Compound P-0258, 1-(3-(4-(morpholine-4-carbonyl)phenyl)pyrazolo[1,5-a]pyridin-4-yl)piperidine-4-carbonitrile] | 100 to 1000 | 100 to 1000
10 | Cn1cc(-c2ccc(-c3cnn4ccnc(C5=CCC(C(N)=O)CC5)c34)cc2)cn1 (centres unmarked) [Compound P-0280, 4-(3-(4-(1-methyl-1H-pyrazol-4-yl)phenyl)pyrazolo[1,5-a]pyrazin-4-yl)cyclohex-3-ene-1-carboxamide] | 0.1 to 100 | 0.1 to 100
11 | CC(C)(O)Cn1cc(-c2ccc(-c3cnc4[nH]ccc4c3C3=CCC(C(N)=O)CC3)cc2F)cn1 (centres unmarked) [Compound P-0134, 4-(5-(3-fluoro-4-(1-(2-hydroxy-2-methylpropyl)-1H-pyrazol-4-yl)phenyl)-1H-pyrrolo[2,3-b]pyridin-4-yl)cyclohex-3-ene-1-carboxamide] | 0.1 to 100 | 100 to 1000
12 | CS(=O)(=O)C1CCC(Oc2cccc3ncc(-c4ccc(-c5cnn(C(F)F)c5)cc4)n23)C1 (centres unmarked) [Compound P-0321, 3-(4-(1-(difluoromethyl)-1H-pyrazol-4-yl)phenyl)-5-((3-(methylsulfonyl)cyclopentyl)oxy) imidazo[1,2-a]pyridine] | 1000 to 10000 | 1000 to 10000
13 | Cc1ccn2ncc(-c3ccc(-c4cnn(C)c4)cc3)c2c1C1=CCC(C#N)CC1 (centres unmarked) [Compound P-0250, 4-[5-methyl-3-[4-(1-methylpyrazol-4-yl)phenyl]pyrazolo[1,5-a]pyridin-4-yl]cyclohex-3-ene-1-carbonitrile] | 0.1 to 100 | 0.1 to 100
